Reference: US6593365B1, “Diflunisal esters and related compounds” (The University of Queensland, priority 1997, dated 2003)
Several values for one entry are separate records, joined by “and”; a condition that tells them apart may be missing. Equal values may be shown once. Read-outs that look alike come from different tables or passages of the source. Each block holds one molecule with its values, some of them ahead of it.

Experiments:
[1] = test system: in-situ perfused rat liver; test: In-situ rat liver perfusion bolus studies, moments and dispersion model analysis (Example 3); type: in vitro ADME, Sprague-Dawley rats; conditions: for CV^2 of reference solute / F (hepatic availability) of reference solute / MTT of reference solute: statistical moments analysis, n=12; for MTTE (mean transit time of blood): MTTE=MTTW/(+1), =0.59
Procedure: Mature female Sprague-Dawley rats were obtained from the University of Queensland Animal Breeding Facility and weighed between 180-270 grams. The animals were given access to a standard laboratory diet prior to experiment. Rats were anaesthetised by interperitoneal injection of pentobarbital sodium (60 mg/kg, Boehringer Ingelhein). […] The bile duct was cannulated with PE10 (Clay Adams, New Jersey). 0.025 gm/L taurocholic acid (Sigma Co., USA.) was dissolved in perfusate to stimulate bile production. The portal vein was then cannulated using a 16 G intravenous catheter and the liver was perfused via this cannula with 2% BSA Krebs-Henseleit bicarbonate buffer (pH 7.4) and oxygenated using a silastic tubing lung ventilated with carbogen (95% O2/5% CO2). The perfusion system used was non-recirculating and employed a peristaltic pump (Cole-Parmer, Illinois).
The animal was placed in a temperature controlled perfusion cabinet at 37° C. Liver viability was assessed by oxygen consumption, bile flow, diflunisal esters' extraction and macroscopic appearance.
Perfusions were made at 30 mL/min in each liver. After a 10 minute perfusion stabilization period, injectate (50 μL) containing Evans Blue (3 mg/mL) and [^3H]-water in a saturated solution of the particular O-acyl diflunisal ester or pregenerated diflunisal (which was injected as parent compound) in 2% BSA Krebs-Henseleit buffer, was injected into the liver with outlet samples collected via a fraction collector over one minute.
Aliquots (100 μL) of pooled perfusate samples were taken for Evans Blue spectrophotometric analysis and [^3H]-water scintillation counting before adjusting pH. These pooled samples were then acidified to pH 2.0 by addition of 1 M HCl and extracted into 2.5 volumes of ether. […] The ether fraction was then removed and reduced to approximately 100 μL by evaporation under air and prepared as before for HPLC analysis. A known concentration of each buffer solution of ester was concurrently extracted and assayed with the perfusate samples to assess the degree of spontaneous hydrolysis occurring over the duration of the extraction procedure. This non-enzymatic hydrolysis was converted for in the analysis. The total recovery of diflunisal esters extracted using this technique was >90%.
The F, MTT and CV^2 for the diflunisal esters (or pregenerated DF) and the reference solutes (EB and [^3H]-water) were determined from the outflow concentration versus time profile using equation (1)-(4), with the assistance of the Moments Calculator 2.2 program for Macintosh computer developed by Robert Purves (Purves RD, 1994, J. Pharm. Sci. 83 202-205). [formula] [formula]
where Q is the perfusate flow rate, D is the dose of diflunisal esters administered. The area under the concentration-time curve (AUC) and the first moment curve (AUMC) were estimated by the trapezoidal rule integration with appropriate modification for tail (Mellick et al., 1996, submitted for publication). [formula]
The moment data was further examined using the dispersion model of hepatic elimination which defines F of an extracted solute by the equation (Roberts et al., 1990, J. Pharmacokin. Biopharm. 18 209-234): [formula]
a={square root over (1+4RNDN)} (6)
DN is the dispersion number which describes the spread of solute residence times in the liver following bolus input and equal half the normalized variance for a non-extracted reference indicator [formula]
RN is the efficiency number which characterises the elimination of solute by the liver and is defined by the equation: [formula]
(Gillette, 1971, Ann. N. Acad. Sci. 179 43-61)), and Q is the perfusate flow rate. If F for a solute and the CV^2 for a non-extracted reference solute (eg. EB) are known, we can solve for “a” using equation (5) and then for “RN” using equation (6).
The dispersion model expressions (Roberts et al., 1990) for MTT and CV^2 are presented in equations (8) and (9). [formula] [formula] […]

[2] = test system: ischaemic/reperfusion rat livers; test: Ischaemic/reperfusion injury in rat livers (LDH release, bile production); design: species or system Female Sprague-Dawley rats; conditions: C is the ED50 molar dose
Procedure: Female Sprague-Dawley rats (220-250 g) were anaesthetised by interperitoneal injection of pentobarbital sodium (60 mg/kg, Boehringer Ingelhein). […] The bile duct was cannulated with a polyethylene tubing (PE-10, I.D. 0.28 mm; Clay Adams, New Jersey) and bile was collected into pre-weighed microcentrifuge tubes at 70 min intervals (in the middle of experiment and the end of experiment). The portal vein was then cannulated using a 16 G intravenous catheter and the liver was perfused via this cannula with 2% BSA Krebs-Henseleit bicarbonate buffer (pH 7.4) and oxygenated using a membrane oxygenator comprising of silastic tubing and ventilated with carbogen (95% O2/5% CO2). The perfusion system used was recirculating and employed a peristaltic pump (Cole-Parmer, Illinois).
Following a 10 min pre-ischaemia perfusion, the perfusion flow was stopped for 30 min at 37° C. with the liver being kept moist. At the end of this ischaemic phase, a known concentration of the aspirin analogue or diflunisal ester's solution (in 2% BSA Krebs-Henseleit buffer) was added into the perfusate prior to the perfusion being resumed for another 100 min. Outflow fractions were collected up to 140 min. A biochemistry autoanalyzer (Hitachi, model 747; Tokyo, Japan) was employed to determine the level of enzyme (LDH) release.
The degree of ischaemic/reperfusion injury was measured by calculating the area under the LDH release ([…]) versus time curve (AUC). […] The efficacy of each compound is expressed in terms of ED50 which represents the molar dose for 50% reduction of LDH release compared to the control. The comparison of bile production between the first stage of experiment (the first 70 min) and the second stage of experiment (the last 70 min) is also used as index of liver function during an experiment.

[3] = test system: OH. generated from Fenton's reaction; test: Luminol-dependent chemiluminescence induced by Fenton's reagent; type: biochemical; design: unit of the concentration uncertain; conditions: F: CL induced by Fenton's reagent, n=3
Procedure: CL was measured with a luminometer (Model 1250; LKB Wallac, Finland) and recorded in millivolts (Cheung et al., 1984, supra).
Fenton's reagent (FeSO4 and H2O2) was used as a standard reaction mixture for the generation of OH. (Lai and Piette, 1979, Tetrahedron Lett. 775-778):
Fe^+++H2O2→Fe^++++OH.+OH (1)
The initial reaction mixture consisted of 20 μL of 3.8 mM FeSO4.7H2O, 20 μL of 5 mg/mL luminol (Sigma), and 2 mL of 1 mM phosphate buffer in a 3 mL polystyrene cuvette. Twenty microlitres of 320 mM H2O2 was added to initiate the Fenton's reaction.
A known concentration of the ethanolic (≲1%) aspirin analogue or diflunisal ester's stock solution was added to the 1 mM phosphate buffer to prepare solutions with a final concentration of 50 μM, 250 μM or 500 μM. Twenty microlitres of these test samples was added onto the cuvette which contained the initial reaction mixture. H2O2 was added to induce CL reaction. The luminol-dependent CL response was recorded in mV by a potentiometric recorder.
(§1) CL measurements were always done in triplicate and Student's t-test used to assess the statistical significance of the difference between measurements.

[4] = test system: superoxide generated from xanthine oxidase plus xanthine reaction; test: Xanthine oxidase plus xanthine-induced chemiluminescence; type: biochemical; design: dose or concentration left out as unconfirmed; conditions: X: CL induced by xanthine oxidase plus xanthine
Procedure: To clarify the role of aspirin analogues and diflunisal esters in free radicals scavenging, the Fenton's reagent was replaced by an artificial superoxide generating system in the CL inhibition studies. This cell-free system consisted of 100 μg/mL of xanthine oxidase (Sigma) plus 0.5 μM xanthine (Sigma) (Rosen and Klebanoff, 1976, J Clin Invest 58 50-60; Cheson et al., 1976, J Clin Invest 58 789-796).
as §1

[5] = test system: human platelet rich plasma; test: Platelet aggregation induced by arachidonic acid; type: cell-based; conditions: compound 600 µM, 37° C., arachidonic acid 200 µM
Procedure: Platelet aggregation studies were carried out using a single channel Lumiaggregometer (Chrono-Log Company, Haverton, Pa.) at 37° C. using human platelet-rich and platelet-poor plasma. Platelet-rich plasma (PRP) with a platelet concentration of […] (measured with a Coulter counter) was prepared by centrifuging 3.8% citrated […] (1:9) at 1,500 rpm using a (Beckman) benchtop centrifuge at room temperature for 15 minutes. Platelet-poor plasma (PPP) was prepared by further centrifuging residual blood from platelet-rich plasma at 3,000 rpm for 30 minutes. Platelet-poor plasma was also confirmed b y Coulter counting for platelet content.
Platelet aggregation studies were preceded by pipetting 0.4 mL platelet-rich plasma into a stirred aggregometer tube and calibrate to 90% of recorder. Platelet-poor plasma was set to calibrate at 10% of recorder. Platelet aggregation was initiated by the addition of a arachidonic acid (Sigma) or ADP (Sigma).
10 mM solutions of each compound (TABLE 6) were prepared in 1 mL of normal saline solution (containing 4% BSA) before use. An aliquot (400 μL) of platelet-rich plasma was pipetted into a stirred aggregometer tube at 37° C. and 30 μL of test sample added simultaneously. This mixture was preincubated for varying period (3 to 45 minutes), then arachidonic acid (AA) was added (final conc.=200 μM) to initiate platelet aggregation. If no aggregation occurred, 20 μM ADP was added to confirm the vitality of the platelets (if the platelets are vital, ADP will induce this AA-test sample-plasma mixture to aggregate). This procedure is necessary to investigate whether the non-aggregation phenomenon is due to drug inhibition or simply due to inviable platelets (unable to respond to AA). The degree of aggregation was measure by calculating the area under the turbidimetric response curve (AUC).

[6] = In vitro non-enzymatic hydrolysis in Krebs-Henseleit buffer; type: physicochemical; conditions: for Hydrolysis rate constant (k): pH 7.4, 25° C., n=5; for half-life: pH 7.4, read-out: Half life (t1/2) (converted)
Procedure: These experiments were carried out both in Krebs-Henseleit buffer containing either no protein or 2% w/v BSA (bovine serum albumin, fraction V, Sigma) at pH 7.4 and 25±1° C.
Solutions of the derivatives in Krebs buffer (10 mL) was prepared in siliconised glass tubes. Each solution was sonicated for 5 minutes and centrifuged for 5 minutes (3000 g) at 25° C. to ensure maximum dissolution and to sediment any undissolved precipitate. About 7.5 mL of the supernatant was then transferred to a clean siliconised test tube and a 100 μL aliquot was removed and assayed. […] The rate of non-enzymatic hydrolysis (k) for each derivative was then estimated using the following equation: […]
where C1 is the concentration of the ester at any time (t), and C0 is the concentration of the ester at time zero. The half-life (t½) was determined using the formula: […]

[7] = fitting to one-compartment dispersion model, individual curves 1-12 and Mean S.E. (n = 12)
[8] = fitting to one-compartment dispersion model, individual curves 1-12 and Mean S.E. (n = 12), listed as 3H -water

CV^2 of reference solute [1]: 1.15±0.11 | F (hepatic availability) of reference solute [1]: 0.95±0.04 | MTT of reference solute [1]: 9.04 ± 0.65 s
Structure (SMILES): Cc1cc(-c2ccc(/N=N/c3ccc4c(S(=O)(=O)O)cc(S(=O)(=O)O)c(N)c4c3O)c(C)c2)ccc1/N=N/c1ccc2c(S(=O)(=O)O)cc(S(=O)(=O)O)c(N)c2c1O [EB]

CL inhibition (%) [4]: 0.9 ± 0.1%
Structure (SMILES): CCCCCCC(=O)Oc1ccc(-c2ccc(F)cc2F)cc1C(=O)O [Compound C7D, n-heptanoyldiflunisal]
log 1/C [2]: 4.52 | CL inhibition (%) ([3]; 0.5 (unit uncertain) compound, U = undetectable): 21.3 ± 3.7% | CL inhibition (%) ([3]; 2.5 (unit uncertain) compound): 57.3 ± 1.9% | CL inhibition (%) ([3]; 5 (unit uncertain) compound): 87.4 ± 3.4% | Platelet Aggregation (% of control) ([5]; preincubation 3 minutes): 97.5 ± 0.9 % of control | Platelet Aggregation (% of control) ([5]; preincubation 5 minutes): 96.3 ± 1.1 % of control | Platelet Aggregation (% of control) ([5]; preincubation 8 minutes): 91.4 ± 0.1 % of control | Platelet Aggregation (% of control) ([5]; preincubation 10 minutes): 91.1 ± 2.1 % of control | Platelet Aggregation (% of control) ([5]; preincubation 12 minutes): 90.8 ± 0.8 % of control | Platelet Aggregation (% of control) ([5]; preincubation 15 minutes): 89.7 ± 2.1 % of control | Platelet Aggregation (% of control) ([5]; preincubation 20 minutes): 77.3 ± 3.1 % of control | Platelet Aggregation (% of control) ([5]; preincubation 25 minutes): 57.3 ± 0.1 % of control | Platelet Aggregation (% of control) ([5]; preincubation 45 minutes): 0 % of control

MTTE (mean transit time of blood) ([1]; individual curves 1-12 and Mean S.E. (n = 12)): 7.36 ± 0.87 s | DN (dispersion number) [1, 7]: 0.29±0.03 | MTTW (mean transit time of the whole liver) [1, 7]: 11.70 ± 1.39 s | DN (dispersion number) ([1]; from CV^2 of the moments analysis): 0.36±0.04 | CV^2 of reference solute [1]: 0.71±0.08 | F (hepatic availability) of reference solute [1]: 0.87±0.02 | MTT of reference solute [1]: 14.42 ± 0.79 s
Structure (SMILES): [3H]O[3H] [[^3H]-water]
MTTE (mean transit time of blood) ([1]; individual curves 1-12 and Mean S.E. (n = 12), listed as 3H -water): 10.09 s and 9.52 s and 11.67 s and 13.40 s and 5.11 s and 4.99 s and 4.23 s and 4.95 s and 6.39 s and 6.33 s and 5.52 s and 6.08 s | DN (dispersion number) [1, 8]: 0.33 and 0.23 (3×) and 0.27 and 0.36 and 0.22 and 0.58 and 0.24 (2×) and 0.26 | MTTW (mean transit time of the whole liver) [1, 8]: 16.05 s and 15.15 s and 18.56 s and 21.31 s and 8.12 s and 7.94 s and 6.73 s and 7.87 s and 10.16 s and 10.07 s and 8.78 s and 9.66 s

Hydrolysis rate constant (k) ([6]; Krebs-Henseleit buffer 0% BSA, U = Undetectable): 0.0052 ± 0.0032 hour^1 | Hydrolysis rate constant (k) ([6]; Krebs-Henseleit buffer 2% BSA): 0.0013 ± 0.0005 hour^1 | half-life ([6]; bovine, Krebs-Henseleit buffer with 2% w/v BSA): 22.2 days | half-life ([6]; protein-free Krebs-Henseleit buffer, Krebs-Henseleit buffer 0% BSA, first half life, t1/2=0.693/k, U = Undetectable): 5.55 days
Structure (SMILES): CCCCCCC(=O)Oc1ccccc1C(=O)O [Compound C7SA, n-heptanoylsalicylic acid]
